Publication PMC12373846, “Hemoglobin as a pseudoperoxidase and drug target for oxidative stress-related diseases” (Signal Transduction and Targeted Therapy, 2025)
Where two headings read alike, the source gives them in different places.

Experiments:
Hb = molecular target: T1, Hb (Homo sapiens, UniProt P68871); experiment: ROS-Glo H2O2 assay with Hb; assay type: biochemical; conditions: for remaining H2O2 normalized to no Hb: Fig. 2d; for fold change in H2O2 decomposition (Hb pseudoperoxidase activity per 0.5 h): 30-min window, Fig. 2b
T1 construct: purchased Sigma-Aldrich H7379
T1 sequence (P68871 2-147 limits assumed): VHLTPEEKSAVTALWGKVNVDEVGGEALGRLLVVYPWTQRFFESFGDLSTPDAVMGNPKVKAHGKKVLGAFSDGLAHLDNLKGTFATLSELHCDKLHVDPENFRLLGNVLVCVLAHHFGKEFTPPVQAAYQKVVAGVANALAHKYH
T1 sequence (P69905 2-142 partner limits assumed): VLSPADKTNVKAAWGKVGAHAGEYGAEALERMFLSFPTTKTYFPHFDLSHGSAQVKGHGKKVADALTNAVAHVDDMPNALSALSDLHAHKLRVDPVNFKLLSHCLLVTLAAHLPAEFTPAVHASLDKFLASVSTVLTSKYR
Procedure: Hb (Sigma‒Aldrich, H7379), H2O2 (Sigma‒Aldrich, H1009), and Amplex Red reagents (Invitrogen, A12222) were obtained for the study. A 4 μM H2O2 solution was prepared in 50 mM sodium phosphate buffer (pH 7.2). Then, 49 μl of this mixture was mixed with 1 μl of the test compound in DMSO or distilled water. The mixture was combined with an assay mixture of Amplex Red reagent (20 mM stock to 0.1 mM) and HRP (200 U/ml stock to 0.2 U/ml) and added to the wells at 50 μl/well. After a 60-min incubation at 37 °C, resorufin production was quantified via a microplate fluorescence reader (SpectraMax iD5, Molecular Devices) at ex/em = 535/580 nm. […] For the ROS-Glo assay, the H2O2 substrate solution and ROS-Glo detection solution were prepared according to the manufacturer’s instructions. 10 μM H2O2 and drugs were prepared as in the Amplex Red assay, with HRP, Hb, CAT, or GPx added as needed. The mixture was added to the wells at 100 μl/well and incubated for 60 min at 37 °C. H2O2 substrate solution was added, and the mixture was incubated at room temperature for 30 min. After the H2O2 substrate solution was added and incubated at room temperature for 30 min, the ROS-Glo detection solution was added, and the mixture was incubated for 15 min. Luminescence was measured via iD5 microplate readers. […] The U/ml was calculated on the basis of the amount of H2O2 reduced by Hb during the reaction, using μg/ml and U/mg.
To evaluate the extent of peroxidase function facilitation by HTPEB (1 μM) and KDS12025 (1 μM) in HRP (0.2 U/ml) and Hb (10 μg/ml), we used the ROS-Glo assay over 30 and 60 min. The fold change was calculated by dividing the delta values during the 30-min reaction for the vehicle over drug conditions.
To assess enzyme activity, the amount of H2O2 consumed over a specific time was quantified alongside a standard curve. For the peroxidase function of Hb, Hb was administered at doses ranging from 0.01 to 112 U/ml and preincubated with H2O2 and either DMSO, HTPEB (1 μM), or KDS12025 (1 μM) at 37 °C for 30 min. The remaining H2O2 was measured via the ROS-Glo assay and normalized against conditions without Hb. The dose‒response curve, EC50, and EC20 for H2O2 decomposition were calculated and determined by fitting the data with GraphPad Prism software. The fitting method had no special handling of outliers, and least squares regression with confidence intervals of the parameters was 95%.

[1] = tested on: primary cultured hippocampal astrocytes; experiment: DCFDA intracellular ROS assay; assay type: cell-based, mouse; conditions: for Aβ-induced ROS level (DCFDA), normalized to control: Aβ 5μM + compound 10μM, Fig. 3e; for relative ROS level (DCFDA): Aβ42+KDS12025 10 μM, Fig. 6c
Procedure: Primary hippocampal astrocytes were obtained from postnatal day 0‒2 (P0‒2) C57BL/6 mice as previously described.[73] The hippocampal tissue was dissected free of meninges, minced, and dissociated into a single-cell suspension by trituration. The cells were grown in Dulbecco’s modified Eagle’s medium supplemented with D-glucose (4500 mg/L), L-glutamine, sodium pyruvate (110 mg/L), 10% heat-inactivated horse serum, 10% heat-inactivated fetal bovine serum, and 1000 U/ml penicillin‒streptomycin. The cells were maintained at 37 °C in a humidified atmosphere containing 5% CO2.
The intracellular ROS levels of astrocytes were determined via 2′,7′- dichlorodihydrofluorescein diacetate (DCFDA; Thermo Fisher). Primary cultured hippocampal astrocytes were seeded into black 96-well plates (Ibidi) at a density of 5 × 10⁴ cells per well. The plates were incubated with oligomerized Aβ42 in the presence of KDS12008, KDS12017, KDS12025, HTPEB (10 µM each), and sodium pyruvate (1 mM). These cells were subsequently washed with Ca^2+ and Mg^2+-containing PBS, followed by the application of 30 µM DCFDA and incubation at 37 °C for 30 min in a dark incubator. The mean fluorescence intensity of each well was measured via iD5 microplate readers at 485 nm and 530 nm. The fluorescence values were calculated by subtracting the blank readings and normalizing them to those of the control group.

APP/PS1 mice = experiment: Passive avoidance test, APP/PS1 mice; assay type: in vivo, mouse
Procedure: For an animal model of AD, both sexes of 10- to 18-month-old APP/PS1 mice were maintained and used as previously described.[76],[77] To test the effects of novel H2O2-decomposing enhancers in the AD model, the mice were treated by i.p. injection with KDS12008 (3 mg/kg/day), KDS12017 (3 mg/kg/day), or KDS12025 (3 or 10 mg/kg/day) once per day for 1 or 2 weeks, depending on the experimental protocol. All drugs were dissolved in 200 μl of saline, and the amount of each drug was calculated on the basis of the weight (kg) of the mouse. Moreover, KDS12025 (3 mg/kg/day) was orally administered to the AD model for 2 weeks ad libitum.
Sufficiently handled mice were ready before the PAT. The mice were placed in a two-compartment (light and dark) shuttle chamber with a shock generator (Ugo Basile, Italy). On the first day, the mice were placed in the light compartment for acquisition. The mice were allowed to explore the light compartment for 60 s, after which the door separating the light and dark compartments was raised to allow the mice to enter the dark compartment. When the mice entered the dark compartment, the separating door was closed immediately, and an electrical foot shock (0.5 mA, 2 s duration) was delivered through the floor grid. The mice were then moved back to the home cage, and the retention trial was conducted 24 h after the acquisition. On the second day, the mice were again placed in the light compartment for the retention trial. After 60 s, the door was raised to allow the mice to enter the dark compartment. The latency to step through the dark compartment before and after the electric shock was recorded for up to 540 s.

[2] = Tables S2, S3, read-out: HB-EC50
[3] = in the presence of Hb, Fig. 1h, read-out: EC50 with Hb (H2O2 decomposition)
[4] = 3 mg/kg/day i.p., 16 times, Fig. S10b
[5] = APP+KDS12025 3 mg/kg/day ad libitum, Fig. 5m

SMILES | remaining H2O2 normalized to no Hb (Hb; Hb 0.01 U/ml) | remaining H2O2 normalized to no Hb (Hb; Hb 0.1 U/ml) | remaining H2O2 normalized to no Hb (Hb; Hb 1 U/ml) | fold change in H2O2 decomposition (Hb pseudoperoxidase activity per 0.5 h) (Hb) [fold] | EC50 (Hb; [2]) [nM] | EC50 (Hb; [3]) [nM] | Aβ-induced ROS level (DCFDA), normalized to control [1] | PAT transfer latency, acquisition (APP/PS1 mice; [4]) | PAT transfer latency, retrieval (APP/PS1 mice; [4]) | also measured
O=C(O)c1cc(NCCc2ccc(C(F)(F)F)cc2)ccc1O [HTPEB, 2-hydroxy-5-[2-(4-trifluoromethyl-phenyl)-ethylamino]-benzoic acid, reference compound] | 84.92±3.034 | 81.24±5.607 | 70.82±3.83 | 2.529±0.6645 | 155 | 150 | 112.0±8.321 | – | – | facilitation of H2O2 decomposition by Hb (Hb; with HTPEB, Fig. 1f): 2 fold
CNc1ccc(NCCc2ccccc2OC)cc1.Cl [KDS12025, N^1-(2-methoxyphenethyl)-N^4-methylbenzene-1,4-diamine hydrochloride salt] | 82.57±2.025 | 75.36±1.113 | 62.38±2.923 | 5.676±0.6374 | 44.9 | 40 | 110.3±5.804 | 29.03±6.431 | 291.0±68.80 | enhancement of Hb pseudoperoxidase activity (Hb): 100 fold; EC50 (Hb; Fig. S1f, read-out: EC50, H2O2 decomposition with human hemoglobin (hHb)): 33 nM; H2O2 decomposition at extremely low Hb (Hb; Hb 0.04 U/ml, 0.03 μg/ml): up to 20%; potency relative to HTPEB (Hb; ratio of EC50 with Hb): ~ 4 fold; fold decrease of Hb EC20 for H2O2 decomposition (Hb; vs Hb alone, Fig. 2e): 98 fold; fold decrease of Hb EC50 for H2O2 decomposition (Hb; vs Hb alone, Fig. 2e): 4.7 fold; relative ROS level (DCFDA) ([1]; Hbβ-shRNA astrocytes): 134.1±5.185; relative ROS level (DCFDA) ([1]; Sc-shRNA astrocytes): 105.8±2.173; PAT transfer latency, acquisition (APP/PS1 mice; 3mpk i.p., 7 times, Fig. S10g): 36.47±13.39; PAT transfer latency, retrieval (APP/PS1 mice; 3mpk i.p., 7 times, Fig. S10g): 341.7±71.16; PAT transfer latency, acquisition (APP/PS1 mice; 10mpk i.p., 7 times, Fig. S10g): 66.00±15.30; PAT transfer latency, retrieval (APP/PS1 mice; 10mpk i.p., 7 times, Fig. S10g): 508.8±49.93; PAT transfer latency, acquisition (APP/PS1 mice; [5]): 21.17±3.843; PAT transfer latency, retrieval (APP/PS1 mice; [5]): 254.3±56.96
CNc1ccc(NCCc2ccc(C(F)(F)F)cc2)cc1.Cl [KDS12017, N^1-methyl-N^4-(4-(trifluoromethyl)phenethyl)benzene-1,4-diamine hydrochloride salt] | – | – | – | – | 86.2 | 90 | 109.6±6.466 | 71.53±23.24 | 305.6±137.5 | –
CN(C)c1ccc(NCCc2ccc(C(F)(F)F)cc2)cc1.Cl [KDS12008, N^1,N^1-dimethyl-N^4-(4-(trifluoromethyl)phenethyl)benzene-1,4-diamine hydrochloride salt] | – | – | – | – | 67 | – | 96.78±7.989 | 44.42±13.85 | 233.6±102.3 | –
